{
  "source": "paper PMC4598813",
  "about": "(Scientific Reports, 2015)",
  "key": {"PrP^Sc in ScN2a cells": {"test_system": "PrP^Sc in ScN2a cells", "type": "cell-based, mouse"}, "total PrP in ScN2a cells": {"test_system": "total PrP in ScN2a cells", "type": "cell-based, mouse"}, "ScN2a cells": {"test_system": "ScN2a cells", "settings": "mouse"}, "L2-2B1 cells": {"test_system": "L2-2B1 cells", "settings": "mouse"}, "PrP^Sc formation": {"test_system": "PrP^Sc formation", "settings": "cited from earlier work"}},
  "data": [
    {"smiles": "CCN(CC)CCCC(C)Nc1c2ccc(Cl)cc2nc2ccc(OC)cc12", "note": "(centres unmarked) [Quinacrine]", "values": [
      {"measurement": "PrP^Sc level", "setting": "PrP^Sc in ScN2a cells", "value": "completely inhibited"},
      {"measurement": "total PrP level", "setting": "total PrP in ScN2a cells", "value": "unaffected"},
      {"measurement": "concentration causing cytotoxicity", "setting": "ScN2a cells", "value": "above 2 μM"},
      {"measurement": "concentration causing cytotoxicity", "setting": "L2-2B1 cells", "value": "above 2 μM"},
      {"measurement": "optimal concentration found to inhibit PrP^Sc formation", "setting": "PrP^Sc formation", "value": "below 4 μM"}
    ]}
  ]
}
